The values that follow are results of earlier work, collected in patent publication US4603221A, “Process for preparing substituted tetralones” (Ethyl Corporation, priority 1985, dated 1986).

For the data set the following is noted: method generally in accordance with Gero et al., J. Org. Chem. 16, 1835-1838 (1951).

The structures appear in SMILES notation.

For `Cc1cccc(C)n1` [2,6-lutidine], the “pKa Value” is reported as 6.62. On to `Cc1ccnc(C)c1` [2,4-lutidine], for which the “pKa Value” was 6.79.
